Measurements reported in ChEMBL document CHEMBL4483862, “Open-source discovery of chemical leads for next-generation chemoprotective antimalarials” (2018).
pIC50: −log10 of the molar value.

Tested on: Plasmodium berghei
Assay: Luciferase/luciferin-expressing antifolate-resistant parasites were used to infect a culture of HepG2 cells that were pre-incubated with compounds. Infected hepatocytes emit light due to the luciferase reaction. Assay results are presented as the percent inhibition of light emission compared to control. […]
Assay type: functional
Details: sporozoite; for IC90: read-out: LUCIFERASE INFECTION ASSAY - IC90

Row | SMILES | IC90 | other results
1 | CCOc1ccc(-c2nc(CSc3nc(C)nc4sc5c(c34)CCCC5)cs2)cc1OC | > 10 µM | pIC50 (FFLUC_HILL_SLOPE 22.7, FFLUC_R_SQUARED 0.174, read-out: LUCIFERASE INFECTION ASSAY - IC50): < 5.00
2 | CC(C)[C@H](NS(=O)(=O)c1ccc2c(c1)OCCO2)C(=O)Nc1nc(-c2ccc(F)c(F)c2)cs1 | > 10 µM | pIC50 (FFLUC_HILL_SLOPE 26.7, FFLUC_R_SQUARED 0.287, HEPG2TOX_HILL_SLOPE 3.72, HEPG2TOX_R_SQUARED 0.958, PBLUC_HILL_SLOPE 3.86, PBLUC_R_SQUARED 0.4, read-out: LUCIFERASE INFECTION ASSAY - IC50): 5.19
3 | CCOC(=O)c1cc(C#N)c(Sc2n[nH]c(=O)n2Cc2ccc(C(F)(F)F)cc2)nc1C | > 7.12 µM | pIC50 (FFLUC_HILL_SLOPE 26.6, FFLUC_R_SQUARED 0.376, read-out: LUCIFERASE INFECTION ASSAY - IC50): < 5.15
4 | Oc1cccnc1NC(c1ccc(Br)cc1)c1ccc2cccnc2c1O (configuration not stated) | 7.73 µM | pIC50 (FFLUC_HILL_SLOPE 24.2, FFLUC_R_SQUARED 0.301, HEPG2TOX_HILL_SLOPE 1.67, HEPG2TOX_R_SQUARED 0.953, PBLUC_HILL_SLOPE 5.65, PBLUC_R_SQUARED 0.637, read-out: LUCIFERASE INFECTION ASSAY - IC50): 5.28
5 | O=C(CSc1nnc(Nc2ccc(SC(F)F)cc2)s1)c1cccs1 | > 10 µM | pIC50 (FFLUC_HILL_SLOPE 26.5, FFLUC_R_SQUARED 0.442, read-out: LUCIFERASE INFECTION ASSAY - IC50): < 5.00
6 | CCOC(=O)c1sc(SCc2ccccc2)c2c1CC(c1ccc(C)cc1)CC2O (configuration not stated) | > 7.52 µM | pIC50 (FFLUC_HILL_SLOPE 27.4, FFLUC_R_SQUARED 0.148, read-out: LUCIFERASE INFECTION ASSAY - IC50): < 5.12
7 | CCn1c2ccccc2c2cc(NC(=O)COC(=O)CCNS(=O)(=O)c3cccc(C)c3)ccc21 | > 10 µM | pIC50 (FFLUC_HILL_SLOPE 22.4, FFLUC_R_SQUARED 0.497, HEPG2TOX_HILL_SLOPE 9.12, HEPG2TOX_R_SQUARED 0.733, read-out: LUCIFERASE INFECTION ASSAY - IC50): < 5.00
8 | Cc1nn2c(=O)c(Cc3cccc(Cl)c3)c(C)[nH]c2c1-c1ccccc1 | 2.81 µM | pIC50 (FFLUC_HILL_SLOPE 22.4, FFLUC_R_SQUARED 0.436, HEPG2TOX_HILL_SLOPE 3.67, HEPG2TOX_R_SQUARED 0.334, PBLUC_HILL_SLOPE 3.2, PBLUC_R_SQUARED 0.748, read-out: LUCIFERASE INFECTION ASSAY - IC50): 5.85
9 | C=C1S/C(=N\c2ccccc2OC)N(C(=O)c2c(-c3ccccc3Cl)noc2C)C12CCCCC2 | > 6.5 µM | pIC50 (FFLUC_HILL_SLOPE 28.3, FFLUC_R_SQUARED 0.328, HEPG2TOX_HILL_SLOPE 0.898, HEPG2TOX_R_SQUARED 0.613, PBLUC_HILL_SLOPE 1.13, PBLUC_R_SQUARED 0.144, read-out: LUCIFERASE INFECTION ASSAY - IC50): 5.43
10 | Clc1ccc(C2=NN=C/C2=N\Nc2ccccc2)cc1 | > 11.7 µM | pIC50 (FFLUC_HILL_SLOPE 24, FFLUC_R_SQUARED 0.142, HEPG2TOX_HILL_SLOPE 12.3, HEPG2TOX_R_SQUARED 0.867, PBLUC_HILL_SLOPE 2.49, PBLUC_R_SQUARED 0.792, read-out: LUCIFERASE INFECTION ASSAY - IC50): 5.26
11 | C=S(=O)(NC(=O)CSc1nnc(C(F)(F)F)n1C)c1ccc(Cl)cc1 (configuration not stated) | > 7.99 µM | pIC50 (FFLUC_HILL_SLOPE 23.5, FFLUC_R_SQUARED 0.129, read-out: LUCIFERASE INFECTION ASSAY - IC50): < 5.10
12 | COC(=O)c1cccc(S(=O)(=O)Oc2cc3ccccc3cc2C(=O)Nc2cc(C)ccc2OC)c1 | > 10 µM | pIC50 (FFLUC_HILL_SLOPE 26.2, FFLUC_R_SQUARED 0.533, PBLUC_HILL_SLOPE 4.23, PBLUC_R_SQUARED 0.622, read-out: LUCIFERASE INFECTION ASSAY - IC50): 5.08
13 | CCC(C)c1ccc(-n2c(SCC(=O)N3c4ccccc4CC3C)nc3ccccc3c2=O)cc1 (configuration not stated) | 9.46 µM | pIC50 (FFLUC_HILL_SLOPE 26.9, FFLUC_R_SQUARED 0.3, PBLUC_HILL_SLOPE 22.4, PBLUC_R_SQUARED 0.296, read-out: LUCIFERASE INFECTION ASSAY - IC50): 5.07
14 | Cn1nc(-c2ccc(Cl)cc2)cc1N | > 15.9 µM | pIC50 (FFLUC_HILL_SLOPE 24.2, FFLUC_R_SQUARED 0.094, read-out: LUCIFERASE INFECTION ASSAY - IC50): < 4.80
15 | Cn1c(-c2ccccc2)c(C(Nc2ccccn2)c2ccccc2O)c2ccccc21 (configuration not stated) | > 10 µM | pIC50 (FFLUC_HILL_SLOPE 22.7, FFLUC_R_SQUARED 0.0514, read-out: LUCIFERASE INFECTION ASSAY - IC50): < 5.00
16 | CC(=O)n1ncc(Sc2ccc(Cl)cc2)c1-c1ccc(Cl)cc1 | > 9.08 µM | pIC50 (FFLUC_HILL_SLOPE 25.1, FFLUC_R_SQUARED 0.0752, read-out: LUCIFERASE INFECTION ASSAY - IC50): < 5.04

Row | SMILES | IC90 | other results
17 | CN(C)c1ccc(C(c2ccc(OC(F)(F)F)cc2)c2ccc(N(C)C)cc2)cc1 | 3.56 µM | pIC50 (FFLUC_HILL_SLOPE 27.2, FFLUC_R_SQUARED 0.132, HEPG2TOX_HILL_SLOPE 6.02, HEPG2TOX_R_SQUARED 0.417, PBLUC_HILL_SLOPE 10.6, PBLUC_R_SQUARED 0.521, read-out: LUCIFERASE INFECTION ASSAY - IC50): 5.54
18 | Cc1cc2oc(=O)cc(CN3CCC(c4c[nH]c5ccccc45)CC3)c2cc1C | > 10 µM | pIC50 (FFLUC_HILL_SLOPE 22.3, FFLUC_R_SQUARED 0.464, read-out: LUCIFERASE INFECTION ASSAY - IC50): < 5.00
19 | O=C(Nc1nc2ccccn2c1C(=O)NC1CCCC1)c1ccc(F)c(F)c1 | 3.18 µM | pIC50 (FFLUC_HILL_SLOPE 26.5, FFLUC_R_SQUARED 0.0302, HEPG2TOX_HILL_SLOPE 1.05, HEPG2TOX_R_SQUARED 0.954, PBLUC_HILL_SLOPE 2.57, PBLUC_R_SQUARED 0.624, read-out: LUCIFERASE INFECTION ASSAY - IC50): 5.87
20 | CCCCNC(=O)c1c(NC(=O)c2ccc(F)c(F)c2)nc2ccccn12 | 0.748 µM | pIC50 (FFLUC_HILL_SLOPE 25.4, FFLUC_R_SQUARED 0.228, HEPG2TOX_HILL_SLOPE 1.03, HEPG2TOX_R_SQUARED 0.844, PBLUC_HILL_SLOPE 2.52, PBLUC_R_SQUARED 0.719, read-out: LUCIFERASE INFECTION ASSAY - IC50): 6.50
21 | Cc1cc(C)c(C)c(S(=O)(=O)N2CCC(C(=O)Nc3nc(-c4ccc[nH]4)cs3)CC2)c1C | > 10 µM | pIC50 (FFLUC_HILL_SLOPE 22.1, FFLUC_R_SQUARED 0.531, read-out: LUCIFERASE INFECTION ASSAY - IC50): < 5.00
22 | O=C(N1CCC(C(c2ccccc2)c2ccccc2)CC1)C(Cl)(Cl)Cl | > 8.32 µM | pIC50 (FFLUC_HILL_SLOPE 23.3, FFLUC_R_SQUARED 0.47, HEPG2TOX_HILL_SLOPE 6.45, HEPG2TOX_R_SQUARED 0.799, read-out: LUCIFERASE INFECTION ASSAY - IC50): < 5.08
23 | Cc1ccc2nc(NC(=O)c3cccc(Cl)c3)c(C(=O)NC3CCCC3)n2c1 | 1.47 µM | pIC50 (FFLUC_HILL_SLOPE 23.2, FFLUC_R_SQUARED 0.442, HEPG2TOX_HILL_SLOPE 1.26, HEPG2TOX_R_SQUARED 0.897, PBLUC_HILL_SLOPE 7.29, PBLUC_R_SQUARED 0.437, read-out: LUCIFERASE INFECTION ASSAY - IC50): 5.96
24 | Cc1c(C(=O)N2CCCCC2)sc2nc(-c3ccc(Cl)cc3)nn12 | 8.36 µM | pIC50 (FFLUC_HILL_SLOPE 28.1, FFLUC_R_SQUARED 0.294, PBLUC_HILL_SLOPE 1.44, PBLUC_R_SQUARED 0.531, read-out: LUCIFERASE INFECTION ASSAY - IC50): 5.74
25 | Cc1ccc(N2C(=O)/C(=C/c3ccc(C(C)C)cc3)N=C2SCC(=O)C23CC4CC(CC(C4)C2)C3)cc1 | > 10 µM | pIC50 (FFLUC_HILL_SLOPE 28, FFLUC_R_SQUARED 0.571, PBLUC_HILL_SLOPE 16, PBLUC_R_SQUARED 0.0407, read-out: LUCIFERASE INFECTION ASSAY - IC50): 5.00
26 | Cc1[nH]c2ccc(C(=O)Nc3ccc(N4CCOCC4)nc3)cc2c1C | > 10 µM | pIC50 (FFLUC_HILL_SLOPE 22.7, FFLUC_R_SQUARED 0.475, read-out: LUCIFERASE INFECTION ASSAY - IC50): < 5.00
27 | CCc1ccc(/C=C/c2ccc3cccc(O)c3n2)cc1 | 0.313 µM | pIC50 (FFLUC_HILL_SLOPE 27.9, FFLUC_R_SQUARED 0.597, HEPG2TOX_HILL_SLOPE 1.09, HEPG2TOX_R_SQUARED 0.82, PBLUC_HILL_SLOPE 3.2, PBLUC_R_SQUARED 0.533, read-out: LUCIFERASE INFECTION ASSAY - IC50): 6.80
28 | Cc1cccc(Oc2ccc(NC(=O)c3cccc(S(=O)(=O)N(C)C4CCCCC4)c3)cc2)c1 | 9.44 µM | pIC50 (FFLUC_HILL_SLOPE 23.3, FFLUC_R_SQUARED 0.81, HEPG2TOX_HILL_SLOPE 1.26, HEPG2TOX_R_SQUARED 0.904, PBLUC_HILL_SLOPE 3.5, PBLUC_R_SQUARED 0.0916, read-out: LUCIFERASE INFECTION ASSAY - IC50): 5.30
29 | O=[N+]([O-])c1ccc(Sc2nc(-c3ccccc3)c(-c3ccccc3)[nH]2)cc1 | > 8.84 µM | pIC50 (FFLUC_HILL_SLOPE 23.8, FFLUC_R_SQUARED 0.615, read-out: LUCIFERASE INFECTION ASSAY - IC50): < 5.05
30 | COc1ccc(C(=O)Nc2ccc3nc(-c4ccccc4)nn3c2)cc1F | > 10 µM | pIC50 (FFLUC_HILL_SLOPE 22.9, FFLUC_R_SQUARED 0.117, read-out: LUCIFERASE INFECTION ASSAY - IC50): < 5.00
31 | COc1ccc(S(=O)(=O)N2CCCCC2)cc1NC(=O)c1nn(CC(C)C)c(=O)c2ccccc12 | 4.38 µM | pIC50 (FFLUC_HILL_SLOPE 27.6, FFLUC_R_SQUARED 0.604, PBLUC_HILL_SLOPE 11.9, PBLUC_R_SQUARED 0.273, read-out: LUCIFERASE INFECTION ASSAY - IC50): 5.44
